{"source": "patent EP4570255A1", "about": "“SPORICIDAL ANTIMICROBIAL COMPOSITIONS AND USES THEREOF” (Silva, Renata Moisés Iwamizu, priority 2022, dated 2024)", "origin": "cited, not measured here", "note": "Where a name gives a salt, the structure may show the parent alone."}
{"smiles": "[H]/N=C(\\N/C(=N/[H])NCCCCCCNC(=N)NC(=N)Nc1ccc(Cl)cc1)Nc1ccc(Cl)cc1", "note": "[diacetate salt, 1,1'-hexamethylene-bis-(5-(p-chlorophenyl)biguanide)]", "values": [{"measurement": "solubility in water", "result": "about 1.8%"}]}
{"smiles": "[H]/N=C(\\N/C(=N/[H])NCCCCCCNC(=N)NC(=N)Nc1ccc(Cl)cc1)Nc1ccc(Cl)cc1", "note": "[digluconate salt, 1,1'-hexamethylene-bis-(5-(p-chlorophenyl)biguanide)]", "values": [{"measurement": "solubility in water", "result": "about 70%"}]}
